target: T1, D816V Kit (Homo sapiens, UniProt P10721, D816V); assay: Kit D816V assay at Km (Caliper electrophoretic mobility shift); format: biochemical; settings: 15 uM ATP, 25 C, 90 minutes
T1 construct: purchased Carna Bioscience 08-156
Summary of the method: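 Read-out is the ratio of phosphorylated to unphosphorylated fluorescent peptide, resolved by mobility shift on a Caliper EZ Reader 2.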

T1 sequence (P10721 26-976 D816V): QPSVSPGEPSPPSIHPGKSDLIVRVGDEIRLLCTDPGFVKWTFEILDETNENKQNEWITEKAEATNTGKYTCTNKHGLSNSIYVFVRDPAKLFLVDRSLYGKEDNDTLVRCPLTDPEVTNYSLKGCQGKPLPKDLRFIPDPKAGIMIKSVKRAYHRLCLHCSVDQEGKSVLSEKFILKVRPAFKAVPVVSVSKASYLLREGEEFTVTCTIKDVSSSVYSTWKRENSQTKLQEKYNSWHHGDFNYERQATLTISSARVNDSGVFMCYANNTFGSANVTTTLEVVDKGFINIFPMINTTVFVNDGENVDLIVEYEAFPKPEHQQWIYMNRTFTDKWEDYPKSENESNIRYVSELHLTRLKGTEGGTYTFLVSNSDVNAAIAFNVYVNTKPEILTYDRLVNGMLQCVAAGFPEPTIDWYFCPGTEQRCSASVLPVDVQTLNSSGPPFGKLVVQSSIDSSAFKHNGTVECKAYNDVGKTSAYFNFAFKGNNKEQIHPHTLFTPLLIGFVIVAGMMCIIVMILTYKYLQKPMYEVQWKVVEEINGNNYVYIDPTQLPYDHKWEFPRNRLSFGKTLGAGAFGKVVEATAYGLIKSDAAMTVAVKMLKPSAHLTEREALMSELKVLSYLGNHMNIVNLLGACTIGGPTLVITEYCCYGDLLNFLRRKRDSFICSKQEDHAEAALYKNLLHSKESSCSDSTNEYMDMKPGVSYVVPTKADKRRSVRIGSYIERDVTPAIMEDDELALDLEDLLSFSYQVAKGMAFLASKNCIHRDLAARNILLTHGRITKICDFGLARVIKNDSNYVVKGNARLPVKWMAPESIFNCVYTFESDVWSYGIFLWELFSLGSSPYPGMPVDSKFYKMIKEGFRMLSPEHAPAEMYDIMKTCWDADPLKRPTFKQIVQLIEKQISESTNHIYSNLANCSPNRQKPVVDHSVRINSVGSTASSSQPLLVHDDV

Row | Structure (SMILES) | IC50
1 | Cc1cc(N2CCN(C)CC2)ccc1Nc1ncnc(N2CCN(c3ncc(Cc4ccccc4)cn3)CC2)n1 [Compound 212] | 0.00101 to 0.01 µM
2 | OCCN1CCc2ccc(Nc3ncnc(N4CCN(c5ncc(Cc6ccccc6)cn5)CC4)n3)cc2C1 [Compound 163] | < 0.001 µM
3 | CN1CCC[C@@H]1COc1ccc(Nc2ncnc(N3CCN(c4ncc(Cc5ccccc5)cn4)CC3)n2)cc1 [Compound 218] | < 0.001 µM
4 | c1ccc(Nc2cnc(N3CCN(c4ncnc(Nc5ccccc5)n4)CC3)nc2)cc1 [Compound 9] | 0.01 to 0.1 µM
5 | CN1CCC[C@H]1COc1ccc(Nc2ncnc(N3CCN(c4ncc(Cc5ccccc5)c(N)n4)CC3)n2)cc1 [Compound 266] | < 0.001 µM
6 | c1ccc(Cc2cnc(N3CCN(c4ncnc(Nc5cccc(CN6CCOCC6)c5)n4)CC3)nc2)cc1 [Compound 160] | 0.00101 to 0.01 µM
7 | OC1(Cn2cc(Nc3ncnc(N4CCN(c5ncc(Cc6ccccc6)cn5)CC4)n3)cn2)CCNCC1 [Compound 182] | < 0.001 µM
8 | c1ccc(Nc2cnc(N3CCN(c4ncnc(Nc5ccc(N6CCOCC6)cc5)n4)CC3)nc2)cc1 [Compound 114] | 0.00101 to 0.01 µM
9 | c1ccc(Cc2cnc(N3CCN(c4ncnc(Nc5ccc(O[C@H]6CCCNC6)cc5)n4)CC3)nc2)cc1 [Compound 162] | < 0.001 µM
10 | OC[C@H]1CCCN1c1ccc(Nc2ncnc(N3CCN(c4ncc(Cc5ccccc5)cn4)CC3)n2)cc1 [Compound 167] | 0.00101 to 0.01 µM
11 | CN1CCO[C@H](Cn2cc(Nc3ncnc(N4CCN(c5ncc(Cc6ccccc6)cn5)CC4)n3)cn2)C1 [Compound 181] | < 0.001 µM
12 | OC[C@@H]1CCCN1c1ccc(Nc2ncnc(N3CCN(c4ncc(Cc5ccccc5)cn4)CC3)n2)cc1 [Compound 168] | 0.00101 to 0.01 µM
13 | c1ccc(Cc2cnc(N3CCN(c4ncnc(NCCCN5CCOCC5)n4)CC3)nc2)cc1 [Compound 37] | > 0.1 µM
14 | CN(C)[C@H]1CCN(Cc2cccc(Nc3ncnc(N4CCN(c5ncc(Cc6ccccc6)cn5)CC4)n3)c2)C1 [Compound 260] | < 0.001 µM
15 | CS(=O)(=O)c1ccc(Nc2ncnc(N3CCN(C(=O)Nc4ccc(C#N)cc4)CC3)n2)cc1 [Compound 40] | 0.01 to 0.1 µM

The remaining lines, values ahead:

Row | IC50 | Structure (SMILES)
16 | 0.00101 to 0.01 µM | NC(=O)c1cccc(Nc2ncnc(N3CCN(c4ncc(Cc5ccccc5)cn4)CC3)n2)c1 [Compound 23]
17 | < 0.001 µM | NS(=O)(=O)c1cccc(Nc2ncnc(N3CCN(c4ncc(Cc5ccccc5)cn4)CC3)n2)c1 [Compound 95]
18 | < 0.001 µM | c1ccc(Cc2cnc(N3CCN(c4ncnc(Nc5cccc(O[C@@H]6CCNC6)c5)n4)CC3)nc2)cc1 [Compound 105]
19 | < 0.001 µM | CC(=O)NCc1cccc(Nc2ncnc(N3CCN(c4ncc(Cc5ccccc5)cn4)CC3)n2)c1 [Compound 74]
20 | < 0.001 µM | NS(=O)(=O)c1ccc(Nc2ncnc(N3CCN(c4ncc(Cc5ccccc5)cn4)CC3)n2)cc1 [Compound 96]
21 | 0.00101 to 0.01 µM | c1ccc(Cc2cnc(N3CCN(c4ncnc(Nc5ccccc5)n4)CC3)nc2)cc1 [Compound 7]
22 | < 0.001 µM | Nc1cncc(Nc2ncnc(N3CCN(c4ncc(Cc5ccccc5)cn4)CC3)n2)c1 [Compound 13]
23 | 0.00101 to 0.01 µM | NC(=O)c1ccc(Nc2ncnc(N3CCN(c4ncc(Cc5ccccc5)cn4)CC3)n2)cc1 [Compound 24]
24 | 0.00101 to 0.01 µM | FC1(F)CN(Cc2cccc(Nc3ncnc(N4CCN(c5ncc(Cc6ccccc6)cn5)CC4)n3)c2)C1 [Compound 188]

target: T2, wild type Kit (Homo sapiens, UniProt P10721); assay: Kit wild type assay at Km (Caliper electrophoretic mobility shift); format: biochemical; settings: 400 uM ATP, 25 C, 90 minutes; read-out: WT KIT
T2 construct: purchased Carna Bioscience 08-156
T2 sequence (P10721 26-976): as the sequence (P10721 26-976 D816V) above, with V791D counted along it
Method: In order to assess the activity of chemical compounds against the relevant kinase of interest, the Caliper LifeSciences electrophoretic mobility shift technology platform is used. Fluorescently labeled substrate peptide is incubated in the presence of kinase and ATP so that a […] proportion of the peptide is phosphorylated. At the end of the reaction, the mix of phosphorylated (product) and non-phosphorylated (substrate) peptides are passed through the microfluidic system of the Caliper EZ Reader 2, under an applied potential difference. The presence of the phosphate group on the product peptide provides a difference in mass and charge between those of the substrate peptide, resulting in a separation of the substrate and product pools in the sample. As the pools pass a LEDS within the instrument, these pools are detected and resolved as separate peaks. The ratio between these peaks therefore reflects the activity of the chemical matter at that concentration in that well, under those conditions.
The reaction was stopped by the addition of 70 ul of Stop buffer (100 mM HEPES pH 7.5, 0.015% Brij 35, 35 mM EDTA and 0.2% of Coating Reagent 3 (Caliper Lifesciences)). The plate was then read on a Caliper EZReader 2 (protocol settings: −1.9 psi, upstream voltage −700, downstream voltage −3000, post sample sip 35 s).

Row | Structure (SMILES) | IC50
25 | Cc1cc(N2CCN(C)CC2)ccc1Nc1ncnc(N2CCN(c3ncc(Cc4ccccc4)cn3)CC2)n1 [Compound 212] | 0.011 to 0.1 µM
26 | OCCN1CCc2ccc(Nc3ncnc(N4CCN(c5ncc(Cc6ccccc6)cn5)CC4)n3)cc2C1 [Compound 163] | < 0.01 µM
27 | CN1CCC[C@@H]1COc1ccc(Nc2ncnc(N3CCN(c4ncc(Cc5ccccc5)cn4)CC3)n2)cc1 [Compound 218] | < 0.01 µM
28 | c1ccc(Nc2cnc(N3CCN(c4ncnc(Nc5ccccc5)n4)CC3)nc2)cc1 [Compound 9] | 0.1 to 1 µM
29 | CN1CCC[C@H]1COc1ccc(Nc2ncnc(N3CCN(c4ncc(Cc5ccccc5)c(N)n4)CC3)n2)cc1 [Compound 266] | < 0.01 µM
30 | c1ccc(Cc2cnc(N3CCN(c4ncnc(Nc5cccc(CN6CCOCC6)c5)n4)CC3)nc2)cc1 [Compound 160] | 0.011 to 0.1 µM
31 | OC1(Cn2cc(Nc3ncnc(N4CCN(c5ncc(Cc6ccccc6)cn5)CC4)n3)cn2)CCNCC1 [Compound 182] | 0.011 to 0.1 µM
32 | c1ccc(Nc2cnc(N3CCN(c4ncnc(Nc5ccc(N6CCOCC6)cc5)n4)CC3)nc2)cc1 [Compound 114] | 0.1 to 1 µM
33 | c1ccc(Cc2cnc(N3CCN(c4ncnc(Nc5ccc(O[C@H]6CCCNC6)cc5)n4)CC3)nc2)cc1 [Compound 162] | < 0.01 µM
34 | OC[C@H]1CCCN1c1ccc(Nc2ncnc(N3CCN(c4ncc(Cc5ccccc5)cn4)CC3)n2)cc1 [Compound 167] | 0.1 to 1 µM
35 | CN1CCO[C@H](Cn2cc(Nc3ncnc(N4CCN(c5ncc(Cc6ccccc6)cn5)CC4)n3)cn2)C1 [Compound 181] | < 0.01 µM
36 | OC[C@@H]1CCCN1c1ccc(Nc2ncnc(N3CCN(c4ncc(Cc5ccccc5)cn4)CC3)n2)cc1 [Compound 168] | 0.011 to 0.1 µM
37 | c1ccc(Cc2cnc(N3CCN(c4ncnc(NCCCN5CCOCC5)n4)CC3)nc2)cc1 [Compound 37] | > 1 µM
38 | CN(C)[C@H]1CCN(Cc2cccc(Nc3ncnc(N4CCN(c5ncc(Cc6ccccc6)cn5)CC4)n3)c2)C1 [Compound 260] | < 0.01 µM
39 | CS(=O)(=O)c1ccc(Nc2ncnc(N3CCN(C(=O)Nc4ccc(C#N)cc4)CC3)n2)cc1 [Compound 40] | 0.011 to 0.1 µM

Continued, values first:

Row | IC50 | Structure (SMILES)
40 | 0.011 to 0.1 µM | NC(=O)c1cccc(Nc2ncnc(N3CCN(c4ncc(Cc5ccccc5)cn4)CC3)n2)c1 [Compound 23]
41 | 0.011 to 0.1 µM | NS(=O)(=O)c1cccc(Nc2ncnc(N3CCN(c4ncc(Cc5ccccc5)cn4)CC3)n2)c1 [Compound 95]
42 | 0.011 to 0.1 µM | c1ccc(Cc2cnc(N3CCN(c4ncnc(Nc5cccc(O[C@@H]6CCNC6)c5)n4)CC3)nc2)cc1 [Compound 105]
43 | 0.011 to 0.1 µM | CC(=O)NCc1cccc(Nc2ncnc(N3CCN(c4ncc(Cc5ccccc5)cn4)CC3)n2)c1 [Compound 74]
44 | 0.011 to 0.1 µM | NS(=O)(=O)c1ccc(Nc2ncnc(N3CCN(c4ncc(Cc5ccccc5)cn4)CC3)n2)cc1 [Compound 96]
45 | 0.011 to 0.1 µM | c1ccc(Cc2cnc(N3CCN(c4ncnc(Nc5ccccc5)n4)CC3)nc2)cc1 [Compound 7]
46 | < 0.01 µM | Nc1cncc(Nc2ncnc(N3CCN(c4ncc(Cc5ccccc5)cn4)CC3)n2)c1 [Compound 13]
47 | 0.011 to 0.1 µM | NC(=O)c1ccc(Nc2ncnc(N3CCN(c4ncc(Cc5ccccc5)cn4)CC3)n2)cc1 [Compound 24]
48 | 0.011 to 0.1 µM | FC1(F)CN(Cc2cccc(Nc3ncnc(N4CCN(c5ncc(Cc6ccccc6)cn5)CC4)n3)c2)C1 [Compound 188]

target: T3, Kit D816V (HMC1.2 cells, Kit V560G and D816V) (Homo sapiens, UniProt P10721, D816V/V560G); assay: HMC1.2 autophosphorylation assay (AlphaLISA, phospho-Y719 c-Kit); format: cell-based; settings: Kit autophosphorylation at tyrosine 719, 90 minutes, read-out: Cellular Activity
T3 construct: endogenous in cells; host or cells: HMC1.2 cells
T3 sequence (P10721 26-976 V560G/D816V): as the sequence (P10721 26-976 D816V) above, with V535G counted along it
Summary of the method: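 Serum-starved (overnight, serum-free IMDM) HMC1.2 cells were treated for 90 min with a 10-point compound series (25 uM–95.4 pM, 0.25% DMSO final). Lysates were probed with phospho-Y719 and total c-Kit antibodies (15 nM final) plus AlphaLISA acceptor and streptavidin donor beads (2 h each, RT), with AlphaScreen read-out.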

Row | Structure (SMILES) | IC50
49 | Cc1cc(N2CCN(C)CC2)ccc1Nc1ncnc(N2CCN(c3ncc(Cc4ccccc4)cn3)CC2)n1 [Compound 212] | 0.1 to 1 µM
50 | OCCN1CCc2ccc(Nc3ncnc(N4CCN(c5ncc(Cc6ccccc6)cn5)CC4)n3)cc2C1 [Compound 163] | 0.01 to 0.1 µM
51 | CN1CCC[C@@H]1COc1ccc(Nc2ncnc(N3CCN(c4ncc(Cc5ccccc5)cn4)CC3)n2)cc1 [Compound 218] | 0.01 to 0.1 µM
52 | CN1CCC[C@H]1COc1ccc(Nc2ncnc(N3CCN(c4ncc(Cc5ccccc5)c(N)n4)CC3)n2)cc1 [Compound 266] | < 0.01 µM
53 | c1ccc(Cc2cnc(N3CCN(c4ncnc(Nc5cccc(CN6CCOCC6)c5)n4)CC3)nc2)cc1 [Compound 160] | 0.1 to 1 µM
54 | OC1(Cn2cc(Nc3ncnc(N4CCN(c5ncc(Cc6ccccc6)cn5)CC4)n3)cn2)CCNCC1 [Compound 182] | 0.01 to 0.1 µM
55 | c1ccc(Nc2cnc(N3CCN(c4ncnc(Nc5ccc(N6CCOCC6)cc5)n4)CC3)nc2)cc1 [Compound 114] | 0.1 to 1 µM
56 | c1ccc(Cc2cnc(N3CCN(c4ncnc(Nc5ccc(O[C@H]6CCCNC6)cc5)n4)CC3)nc2)cc1 [Compound 162] | < 0.01 µM
57 | OC[C@H]1CCCN1c1ccc(Nc2ncnc(N3CCN(c4ncc(Cc5ccccc5)cn4)CC3)n2)cc1 [Compound 167] | 0.01 to 0.1 µM
58 | CN1CCO[C@H](Cn2cc(Nc3ncnc(N4CCN(c5ncc(Cc6ccccc6)cn5)CC4)n3)cn2)C1 [Compound 181] | 0.01 to 0.1 µM
59 | OC[C@@H]1CCCN1c1ccc(Nc2ncnc(N3CCN(c4ncc(Cc5ccccc5)cn4)CC3)n2)cc1 [Compound 168] | 0.01 to 0.1 µM
60 | CN(C)[C@H]1CCN(Cc2cccc(Nc3ncnc(N4CCN(c5ncc(Cc6ccccc6)cn5)CC4)n3)c2)C1 [Compound 260] | 0.01 to 0.1 µM

Now from value to compound:

Row | IC50 | Structure (SMILES)
61 | 0.1 to 1 µM | NC(=O)c1cccc(Nc2ncnc(N3CCN(c4ncc(Cc5ccccc5)cn4)CC3)n2)c1 [Compound 23]
62 | 1 to 10 µM | NS(=O)(=O)c1cccc(Nc2ncnc(N3CCN(c4ncc(Cc5ccccc5)cn4)CC3)n2)c1 [Compound 95]
63 | 0.1 to 1 µM | c1ccc(Cc2cnc(N3CCN(c4ncnc(Nc5cccc(O[C@@H]6CCNC6)c5)n4)CC3)nc2)cc1 [Compound 105]
64 | 0.01 to 0.1 µM | CC(=O)NCc1cccc(Nc2ncnc(N3CCN(c4ncc(Cc5ccccc5)cn4)CC3)n2)c1 [Compound 74]
65 | 0.1 to 1 µM | NS(=O)(=O)c1ccc(Nc2ncnc(N3CCN(c4ncc(Cc5ccccc5)cn4)CC3)n2)cc1 [Compound 96]
66 | 1 to 10 µM | c1ccc(Cc2cnc(N3CCN(c4ncnc(Nc5ccccc5)n4)CC3)nc2)cc1 [Compound 7]
67 | 0.01 to 0.1 µM | Nc1cncc(Nc2ncnc(N3CCN(c4ncc(Cc5ccccc5)cn4)CC3)n2)c1 [Compound 13]
68 | 0.1 to 1 µM | NC(=O)c1ccc(Nc2ncnc(N3CCN(c4ncc(Cc5ccccc5)cn4)CC3)n2)cc1 [Compound 24]
69 | 0.01 to 0.1 µM | FC1(F)CN(Cc2cccc(Nc3ncnc(N4CCN(c5ncc(Cc6ccccc6)cn5)CC4)n3)c2)C1 [Compound 188]

Source: patent US9334263B2, “Compositions useful for treating disorders related to kit” (BLUEPRINT MEDICINES CORPORATION, priority 2013, dated 2016)
